From ChEMBL document CHEMBL4680212, “Discovery of T-1101 tosylate as a first-in-class clinical candidate for Hec1/Nek2 inhibition in cancer therapy” (Eur J Med Chem, 2020)

Assays:
[1] = AUC in CD-1 mouse at 10 mg/kg, po administered as single dose via gavage by LC-MS/MS analysis; type: ADME, organism-based; set-up: dose 10 mg/kg; conditions: in vivo
[2] = Oral bioavailability in CD-1 mouse at 10 mg/kg administered as single dose via gavage by LC-MS/MS analysis; type: ADME, organism-based; conditions: in vivo
[3] = Tmax in CD-1 mouse at 10 mg/kg, po administered as single dose via gavage by LC-MS/MS analysis; type: ADME, organism-based; conditions: in vivo
[4] = Cmax in CD-1 mouse at 10 mg/kg, po administered as single dose via gavage by LC-MS/MS analysis; type: ADME, organism-based; set-up: route oral, dose 10 mg/kg; conditions: in vivo
[5] = Half life in CD-1 mouse at 10 mg/kg, po administered as single dose via gavage by LC-MS/MS analysis; type: ADME, organism-based; conditions: in vivo
[6] = Tmax in Beagle dog at 10 mg/kg, po administered as single dose via gavage by LC-MS/MS analysis; type: ADME, organism-based, Canis lupus familiaris; conditions: in vivo
[7] = Cmax in Beagle dog at 10 mg/kg, po administered as single dose via gavage by LC-MS/MS analysis; type: ADME, organism-based, Canis lupus familiaris; set-up: route oral, dose 10 mg/kg; conditions: in vivo
[8] = AUC in Beagle dog at 10 mg/kg, po administered as single dose via gavage by LC-MS/MS analysis; type: ADME, organism-based, Canis lupus familiaris; set-up: dose 10 mg/kg; conditions: in vivo
[9] = Half life in Beagle dog at 10 mg/kg, po administered as single dose via gavage by LC-MS/MS analysis; type: ADME, organism-based, Canis lupus familiaris; conditions: in vivo
[10] = Oral bioavailability in Beagle dog at 10 mg/kg administered as single dose via gavage by LC-MS/MS analysis; type: ADME, organism-based, Canis lupus familiaris; conditions: in vivo
[11] = tested on: MDA-MB-231; assay: Antitumor activity against human MDA-MB-231 cells xenografted in SCID mouse assessed as tumor growth at 150 mg/kg, po administered twice daily for 28 days measured post last dose relative to control; type: functional; conditions: time 28 day
[12] = tested on: MDA-MB-231; assay: Antiproliferative activity against human MDA-MB-231 cells measured after 96 hrs by CellTiter 96 Aqueous One Solution Reagent based assay; type: functional, cell-based; conditions: MDA-MB-231, 96 h
[13] = tested on: MDA-MB-468; assay: Antiproliferative activity against human MDA-MB-468 cells measured after 96 hrs by CellTiter 96 Aqueous One Solution Reagent based assay; type: functional, cell-based; conditions: MDA-MB-468, 96 h
[14] = tested on: K562; assay: Antiproliferative activity against human K562 cells measured after 96 hrs by CellTiter 96 Aqueous One Solution Reagent based assay; type: functional, cell-based; conditions: K562, 96 h
[15] = tested on: HeLa; assay: Antiproliferative activity against human HeLa cells measured after 96 hrs by CellTiter 96 Aqueous One Solution Reagent based assay; type: functional, cell-based

AUC [1] | bioavailability [2] | Tmax [3] | Cmax [4] | half-life [5] | Tmax [6] | Cmax [7] | AUC [8] | half-life [9] | bioavailability [10] | IC50 [12] | IC50 [13] | IC50 [14] | IC50 [15] | SMILES | T/C [11]
62.5 µM·h | 77.4% | 1 h | 8.13 µM | 2.81 h | 1 h | 0.98 µM | 8.61 µM·h | 4.53 h | 24.9% | – | – | – | – | COCCOc1cnc(Sc2cc(C)c(-c3csc(NC(=O)c4ccncc4)n3)c(C)c2)cn1.Cc1ccc(S(=O)(=O)O)cc1 | –
– | – | – | – | – | – | – | – | – | – | – | – | – | – | COc1ccc(Oc2cc(C)c(-c3csc(NC(=O)c4ccncc4)n3)c(C)c2)cc1 | 50%
13.9 µM·h | – | – | – | – | – | – | – | – | – | 94.5 nM | 53.9 nM | 59.2 nM | 32.8 nM | Cc1cc(Sc2cnc(OCCN(C)C)cn2)cc(C)c1-c1csc(NC(=O)c2ccncc2)n1 | –
47.5 µM·h | 58.5% | 1.5 h | 8.44 µM | 3.38 h | – | – | – | – | – | – | – | – | – | COCCOc1cnc(Sc2cc(C)c(-c3csc(NC(=O)c4ccncc4)n3)c(C)c2)cn1.CS(=O)(=O)O | –
